Assay results from patent US11304946B2, “2-hetarylpyrimidine-4-carboxamides as aryl hydrocarbon receptor antagonists” (Bayer Aktiengesellschaft, priority 2017, dated 2022).
pIC50: −log10 of the molar value.

What was measured:
Mouse AhR = target: T1, Mouse AhR (Mus musculus, UniProt P30561); assay: Transactivation assay in mouse cell line (in vitro assay 2: antagonism); assay type: cell-based; conditions: Hepa 1c1c7 cells, AHR inducible (DRE) firefly luciferase reporter, 200 μM kynurenic acid, 20 hours
T1 sequence (P30561 1-848): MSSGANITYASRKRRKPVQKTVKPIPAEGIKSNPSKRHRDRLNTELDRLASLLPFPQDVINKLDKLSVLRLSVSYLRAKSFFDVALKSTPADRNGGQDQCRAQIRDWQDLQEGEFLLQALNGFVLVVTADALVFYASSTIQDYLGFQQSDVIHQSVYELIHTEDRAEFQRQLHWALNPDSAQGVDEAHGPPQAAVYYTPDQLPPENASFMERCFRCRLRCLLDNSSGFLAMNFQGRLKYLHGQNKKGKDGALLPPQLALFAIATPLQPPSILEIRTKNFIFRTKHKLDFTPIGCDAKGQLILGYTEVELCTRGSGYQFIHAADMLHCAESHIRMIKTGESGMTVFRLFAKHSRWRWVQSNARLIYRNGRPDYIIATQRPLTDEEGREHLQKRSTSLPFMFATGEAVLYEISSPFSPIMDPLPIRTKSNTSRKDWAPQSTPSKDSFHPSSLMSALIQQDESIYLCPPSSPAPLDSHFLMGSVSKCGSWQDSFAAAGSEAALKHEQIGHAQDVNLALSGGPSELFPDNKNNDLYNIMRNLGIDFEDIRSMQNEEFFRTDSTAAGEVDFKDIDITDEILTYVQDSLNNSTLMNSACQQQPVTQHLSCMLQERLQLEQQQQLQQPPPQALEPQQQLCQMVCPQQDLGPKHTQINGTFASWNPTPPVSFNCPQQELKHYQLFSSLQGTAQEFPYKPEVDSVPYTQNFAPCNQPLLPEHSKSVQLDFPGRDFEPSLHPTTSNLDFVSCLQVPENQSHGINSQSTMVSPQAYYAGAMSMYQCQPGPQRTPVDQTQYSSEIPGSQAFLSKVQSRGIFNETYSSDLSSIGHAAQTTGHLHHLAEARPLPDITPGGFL
Experimental: Transactivation Assay in Mouse Cell Line (In Vitro Assay 2)
(§1) Transactivation assay was carried out in Hepa 1c1c7 cells (ATCC #CRL-2026) endogenously expressing AHR. In addition the cells were stably transfected with an AHR inducible firefly luciferase reporter gene construct that carried AHR-binding sites (DRE) in its promoter. Kynurenic acid is an endogenous AHR activating ligand and was used to prestimulate test cells prior to testing the antagonistic properties of compounds.
In Vitro Assay 2: Antagonism in Mouse Cell Line
Firefly luciferase activity was determined by the SteadyGlo Luciferase Assay System (Promega, #E2550).

Human AhR = target: T2, Human AhR (Homo sapiens, UniProt P35869); assay: Transactivation assay in human cell line (in vitro assay 1: antagonism); assay type: cell-based; conditions: U87 glioblastoma cells, AHR inducible (DRE) firefly luciferase reporter, 150 μM kynurenic acid, 20 hours
T2 construct: host or cells: U87 glioblastoma cells, stably transfected with DRE-driven firefly luciferase and constitutive renilla reporter constructs
T2 sequence (P35869 11-848): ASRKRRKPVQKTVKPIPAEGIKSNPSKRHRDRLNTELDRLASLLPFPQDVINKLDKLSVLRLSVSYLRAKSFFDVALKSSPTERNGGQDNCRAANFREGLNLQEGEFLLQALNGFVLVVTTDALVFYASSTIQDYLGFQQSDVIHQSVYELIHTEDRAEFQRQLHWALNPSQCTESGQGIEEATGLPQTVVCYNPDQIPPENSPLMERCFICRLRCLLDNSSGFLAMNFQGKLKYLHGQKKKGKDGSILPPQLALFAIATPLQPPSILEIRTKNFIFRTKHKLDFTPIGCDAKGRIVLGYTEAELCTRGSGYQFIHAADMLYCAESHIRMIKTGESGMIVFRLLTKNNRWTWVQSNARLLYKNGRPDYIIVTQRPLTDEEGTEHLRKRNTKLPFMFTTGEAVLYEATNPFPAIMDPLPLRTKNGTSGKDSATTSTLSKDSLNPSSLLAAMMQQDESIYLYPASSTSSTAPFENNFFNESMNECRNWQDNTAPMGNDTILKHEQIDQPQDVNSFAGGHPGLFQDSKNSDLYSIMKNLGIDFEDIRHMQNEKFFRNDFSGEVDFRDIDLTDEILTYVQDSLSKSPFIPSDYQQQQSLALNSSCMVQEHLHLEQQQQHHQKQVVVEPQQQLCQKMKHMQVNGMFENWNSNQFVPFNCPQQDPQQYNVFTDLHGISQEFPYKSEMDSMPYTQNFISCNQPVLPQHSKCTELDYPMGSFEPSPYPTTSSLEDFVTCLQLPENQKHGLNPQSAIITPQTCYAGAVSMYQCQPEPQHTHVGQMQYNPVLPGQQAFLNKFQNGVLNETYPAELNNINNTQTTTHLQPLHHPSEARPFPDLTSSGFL
Experimental: Transactivation Assay in Human Cell Line (In Vitro Assay 1)
as §1, with “U87 glioblastoma” for “Hepa 1c1c7”, “(ATCC)” for “(ATCC #CRL-2026)”, “its promoter and a renilla reporter gene construct with constitutively active” for “its”
In Vitro Assay 1: Antagonism in Human Cell Line
Firefly luciferase and Renilla activity was determined by the DualGlo Luciferase Assay System (Promega, #2920). Renilla activity was used to assess toxic effects of compounds.

Compound | pIC50 (Mouse AhR) | pIC50 (Human AhR)
C[C@@H](CO)NC(=O)c1cc(-c2ccc(Cl)cc2)nc(-c2cncnc2)n1 [Example 75, 6-(4-chlorophenyl)-N-[(2S)-1-hydroxypropan-2-yl][2,5′-bipyrimidine]-4-carboxamide] | 7.67 | 8.20
Cn1cc(-c2nc(C(=O)NCC(C)(C)O)cc(-c3ccc(OC(F)(F)F)cc3)n2)cn1 [Example 6, N-(2-hydroxy-2-methylpropyl)-2-(1-methyl-1H-pyrazol-4-yl)-6-[4-(trifluoromethoxy)phenyl]pyrimidine-4-carboxamide] | 7.82 | 8.12
CC(C)(O)CNC(=O)c1cc(-c2ccc(OC(F)(F)F)cc2)nc(-c2cn[nH]c2)n1 [Example 20, N-(2-hydroxy-2-methylpropyl)-2-(1H-pyrazol-4-yl)-6-[4-(trifluoromethoxy)phenyl]pyrimidine-4-carboxamide] | 6.45 | 6.14
Cn1cc(-c2nc(C(=O)N[C@H]3COC[C@H]3O)cc(-c3ccc(OC(F)(F)F)cc3)n2)cn1 [Example 103, N-[(3S,4S)-4-hydroxytetrahydrofuran-3-yl]-2-(1-methyl-1H-pyrazol-4-yl)-6-[4-(trifluoromethoxy)phenyl]pyrimidine-4-carboxamide] | 8.24 | 8.17
Cc1nn(C)cc1-c1nc(C(=O)NCC(C)(C)O)cc(-c2ccc(OC(F)(F)F)cc2)n1 [Example 25, 2-(1,3-dimethyl-1H-pyrazol-4-yl)-N-(2-hydroxy-2-methylpropyl)-6-[4-(trifluoromethoxy)phenyl]pyrimidine-4-carboxamide] | 6.96 | 8.09
O=C(N[C@H]1COC[C@@H]1O)c1cc(-c2ccc(OC(F)(F)F)cc2)nc(-c2cccnc2)n1 [Example 118, N-[(3S,4R)-4-hydroxyoxolan-3-yl]-2-(pyridin-3-yl)-6-[4-(trifluoromethoxy)phenyl]pyrimidine-4-carboxamide] | 8.47 | 8.63
C[C@H](CO)NC(=O)c1cc(-c2ccc(OC(F)(F)F)cc2)nc(-c2cccnc2)n1 [Example 2, N-[(2R)-1-hydroxypropan-2-yl]-2-(pyridin-3-yl)-6-[4-(trifluoromethoxy)phenyl]pyrimidine-4-carboxamide] | 7.69 | 8.54
CC(C)(O)CNC(=O)c1cc(-c2ccc(Cl)cc2)nc(-c2cccnc2)n1 [Example 10, 6-(4-chlorophenyl)-N-(2-hydroxy-2-methylpropyl)-2-(pyridin-3-yl)pyrimidine-4-carboxamide] | 8.07 | 8.86
CC(C)(O)CNC(=O)c1cc(-c2ccc(OC(F)(F)F)cc2)nc(-c2cccnc2)n1 [Example 3, N-(2-hydroxy-2-methylpropyl)-2-(pyridin-3-yl)-6-[4-(trifluoromethoxy)phenyl]pyrimidine-4-carboxamide] | 8.11 | 8.41
CC(C)[C@@H](CO)NC(=O)c1cc(-c2ccc(OC(F)(F)F)cc2)nc(-c2cnn(C)c2)n1 [Example 116, N-[(2S)-1-hydroxy-3-methylbutan-2-yl]-2-(1-methyl-1H-pyrazol-4-yl)-6-[4-(trifluoromethoxy)phenyl]pyrimidine-4-carboxamide] | 8.71 | –
Cc1cscc1-c1nc(C(=O)N[C@@H](C)CO)cc(-c2ccc(Cl)cc2)n1 [Example 71, 6-(4-chlorophenyl)-N-[(2S)-1-hydroxypropan-2-yl]-2-(4-methylthiophen-3-yl)pyrimidine-4-carboxamide] | 8.33 | 8.49
Cc1ccc(-c2nc(C(=O)NCC(C)(C)O)cc(-c3ccc(Cl)cc3)n2)cn1 [Example 60, 6-(4-chlorophenyl)-N-(2-hydroxy-2-methylpropyl)-2-(6-methylpyridin-3-yl)pyrimidine-4-carboxamide] | 5.85 | 7.19
C[C@@H](CO)NC(=O)c1cc(-c2ccc(Cl)cc2)nc(-c2cnn(C3CC3)c2)n1 [Example 85, 6-(4-chlorophenyl)-2-(1-cyclopropyl-1H-pyrazol-4-yl)-N-[(2S)-1-hydroxypropan-2-yl]pyrimidine-4-carboxamide] | 5.13 | 5.92
CC(NC(=O)c1cc(-c2ccc(OC(F)(F)F)cc2)nc(-c2cnn(C)c2)n1)C(O)CO (stereo not drawn) [Example 104, N-(3,4-dihydroxybutan-2-yl)-2-(1-methyl-1H-pyrazol-4-yl)-6-[4-(trifluoromethoxy)phenyl]pyrimidine-4-carboxamide] | 7.69 | 7.90
Cn1cc(-c2nc(C(=O)N[C@H](CO)C3CC3)cc(-c3ccc(OC(F)(F)F)cc3)n2)cn1 [Example 99, N-[(1S)-1-cyclopropyl-2-hydroxyethyl]-2-(1-methyl-1H-pyrazol-4-yl)-6-[4-(trifluoromethoxy)phenyl]pyrimidine-4-carboxamide] | 7.67 | 7.75
Cn1cc(-c2nc(C(=O)N[C@H](CO)CF)cc(-c3ccc(OC(F)(F)F)cc3)n2)cn1 [Example 95, N-[(2R)-1-fluoro-3-hydroxypropan-2-yl]-2-(1-methyl-1H-pyrazol-4-yl)-6-[4-(trifluoromethoxy)phenyl]pyrimidine-4-carboxamide] | 8.40 | 8.46
CC(C)(O)CNC(=O)c1cc(-c2ccc(C(F)F)cc2)nc(-c2cccnc2)n1 [Example 120, 6-[4-(difluoromethyl)phenyl]-N-(2-hydroxy-2-methylpropyl)-2-(pyridin-3-yl)pyrimidine-4-carboxamide] | 7.99 | –
CC(C)(O)CNC(=O)c1cc(-c2ccc(C(F)(F)F)cc2)nc(-c2cccnc2)n1 [Example 7, N-(2-hydroxy-2-methylpropyl)-2-(pyridin-3-yl)-6-[4-(trifluoromethyl)phenyl]pyrimidine-4-carboxamide] | 7.90 | –
C[C@@H](CO)NC(=O)c1cc(-c2ccc(Cl)cc2)nc(-c2cn[nH]c2)n1 [Example 81, 6-(4-chlorophenyl)-N-[(2S)-1-hydroxypropan-2-yl]-2-(1H-pyrazol-4-yl)pyrimidine-4-carboxamide] | – | 5.98
C[C@@H](CO)NC(=O)c1cc(-c2ccc(OC(F)(F)F)cc2)nc(-c2ccsc2)n1 [Example 31, N-[(2S)-1-hydroxypropan-2-yl]-2-(thiophen-3-yl)-6-[4-(trifluoromethoxy)phenyl]pyrimidine-4-carboxamide] | – | 7.84
COc1ccncc1-c1nc(C(=O)NCC(C)(C)O)cc(-c2ccc(Cl)cc2)n1 [Example 61, 6-(4-chlorophenyl)-N-(2-hydroxy-2-methylpropyl)-2-(4-methoxypyridin-3-yl)pyrimidine-4-carboxamide] | 8.32 | –
